Patent US6972288B1, “4-amino-quinazoline and quinoline derivatives having an inhibitory effect on signal transduction mediated by tyrosine kinases” (Boehringer Ingelheim Pharma KG, priority 1999, dated 2005)

System: not given
Assay: not given
Details: not given

Row | SMILES | melting point
1 | CCOC(=O)CN(C)CCCNC(=O)C=CC(=O)Nc1ccc2ncnc(Nc3cccc(Br)c3)c2c1 [Example 3, 4-[(3-Bromophenyl)amino]-6-{[4-(3-{N-[(ethoxycarbonyl)methyl]-N-methylamino)propylamino)-1,4-dioxo-2-buten-1-yl]amino}-quinazoline] | 199 °C
2 | O=C(C=CCN1CCN(CC(=O)OCc2ccccc2)CC1)Nc1cc2c(Nc3ccc(F)c(Cl)c3)ncnc2cc1OCC1CC1 [Example 12, 4-[(3-Chloro-4-fluoro-phenyl)amino]-6-[(4-{4-[(benzyloxycarbonyl)methyl]-piperazin-1-yl)-1-oxo-2-buten-1-yl}amino]-7-cyclopropylmethoxy-quinazoline] | 174 °C
3 | CCOC(=O)CN(C)CC=CC(=O)Nc1cc2c(Nc3cccc(C)c3)ncnc2cc1OC [Example 5, 4-[(3-methylphenyl)amino]-6-[(4-{N-[(ethoxycarbonyl)methyl]-N-methylamino}-1-oxo-2-buten-1-yl)amino]-7-methoxy-quinazoline] | 110 to 114 °C
4 | CCOC1CN(CC=CC(=O)Nc2cc3c(Nc4cccc(Br)c4)ncnc3cc2OC)CC(OCC)O1 (stereo not shown) [Example 7, 4-[(3-bromophenyl)amino]-6-{[4-(2,6-diethoxy-morpholin-4-yl)-1-oxo-2-buten-1-yl]amino}-7-methoxy-quinazoline] | 133 to 138 °C
5 | CCOC(=O)CN1CCN(C(C)(C)C=CC(=O)Nc2cc3c(Nc4ccc(F)c(Cl)c4)ncnc3cc2OCC2CC2)CC1 [Example 17, 4-[(3-Chloro-4-fluoro-phenyl)amino]-6-[(4,4-dimethyl-4-{4-[(ethoxycarbonyl)methyl]-piperazin-1-yl)-1-oxo-2-buten-1-yl)amino]-7-cyclopropylmethoxy-quinazoline] | 165 to 167 °C
6 | CC1(C)CN(CC=CC(=O)Nc2cc3c(Nc4ccc(F)c(Cl)c4)ncnc3cc2OCC2CC2)CC(=O)O1 [Example 10, 4-[(3-chloro-4-fluorophenyl)amino]-6-{[4-(2,2-dimethyl-6-oxo-morpholin-4-yl)-1-oxo-2-buten-1-yl]amino}-7-cyclopropylmethoxy-quinazoline] | 140 to 142 °C
7 | CCOC(=O)C1CN(C(C)=O)CCN1CC=CC(=O)Nc1cc2c(Nc3ccc(F)c(Cl)c3)ncnc2cc1OCC1CC1 (stereo not shown) [Example 18, 4-[(3-Chloro-4-fluoro-phenyl)amino]-6-({4-[2-(ethoxycarbonyl)-4-(methylcarbonyl)-piperazin-1-yl]-1-oxo-2-buten-1-yl}amino)-7-cyclopropylmethoxy-quinazoline] | 152 to 156 °C
8 | CCOC(=O)CCN1CCN(CC=CC(=O)Nc2cc3c(Nc4ccc(F)c(Cl)c4)ncnc3cc2OCC2CC2)CC1 [Example 16, 4-[(3-Chloro-4-fluoro-phenyl)amino]-6-[(4-{4-[2-(ethoxycarbonyl)-ethyl]-piperazin-1-yl}-1-oxo-2-buten-1-yl)amino]-7-cyclopropylmethoxy-quinazoline] | 183 to 185 °C
9 | C=CC(=O)Nc1cc2c(Nc3cccc(Br)c3)ncnc2cc1OCCCN1CCN(CC(=O)O)CC1 [Example 6, 4-[(3-Bromophenyl)amino]-7-{3-[4-(carboxymethyl)-piperazin-1-yl]propyloxy}-6-[(vinylcarbonyl)amino]-quinazoline] | 140 °C (dec.)
10 | CCOC(=O)C1CN(S(C)(=O)=O)CCN1CC=CC(=O)Nc1cc2c(Nc3ccc(F)c(Cl)c3)ncnc2cc1OCC1CC1 (stereo not shown) [Example 15, 4-[(3-Chloro-4-fluoro-phenyl)amino]-6-({4-[2-(ethoxycarbonyl)-4-(methylsulfonyl)-piperazin-1-yl]-1-oxo-2-buten-1-yl)amino)-7-cyclopropylmethoxy-quinazoline] | 170 to 173 °C

Target: T1, human EGF-R (Homo sapiens, UniProt P00533)
T1 construct: expressed in transfected cells; host or cells: F/L-HERc cells, derived from the murine IL-3-dependent line FDC-P1 ('FDC-PI' [sic]); retroviral vector LXSN, packaging line GP+E86
Assay: Inhibition of EGF-dependent proliferation of F/L-HERc cells (Cell Titer 96 AQueous assay)
Format: cell-based
Details: F/L-HERc cells (murine IL-3-dependent line expressing human EGF-R), stimulated with EGF 20 ng/ml, 48 hours at 37° C.
From the text: A cell line of murine origin dependent on interleukin-3 (IL-3) which was genetically modified to express functional human EGF-R was used here. The proliferation of these cells known as F/L-HERc can therefore be stimulated either by murine IL-3 or by EGF (cf. von Rüden, T. et al. in EMBO J. 7, 2749-2756 (1988) and Pierce, J. H. et al. in Science 239. 628-631 (1988)).
The starting material used for the F/L-HERc cells was the cell line FDC-PI, the production of which has been described by Dexter, T. M. et al, in J. Exp. Med. 152, 1036-1047 (1980). alternatively, however, other growth-factor-dependent cells may also be used (cf. for example Pierce, J. H. et al. in Science 239, 628-631 (1988), Shibuya, H. et al. in Cell 70, 57-67 (1992) and alexander, W. S. et al. in EMBO J. 10, 3683-3691 (1991)). For expressing the human EGF-R cDNA (cf. Ullrich, A. et al. in Nature 309, 418-425 (1984)) recombinant retroviruses were used as described by von Rüden, T. et al., EMBO J. 7, 2749-2756 (1988), except that the retroviral vector LXSN (cf. Miller, A. D. et al. in BioTechniques 1, 980-990 (1989)) was used for the expression of the EGF-R cDNA and the line GP+E86 (cf, Markowitz, D, et al. in J. Virol. 62, 1120-1124 (1988)) was used as the packaging cell.
The test was performed as follows: • F/L-HERC cells were cultivated in RPMI/1640 medium (BioWhittaker), supplemented with 10% foetal calf serum (FCS, Boehringer Mannheim). 2 mM glutamine (BioWhittaker), standard antibiotics and 20 ng/ml of human EGF (Promega), at 37° C. and 5% CO2. In order to investigate the inhibitory activity of the compounds according to the invention, 1.5×10^4 cells per well were cultivated in triplicate in 96-well plates in the above medium ([…]), the cell proliferation being stimulated with either EGF (20 ng/ml) or murine IL-3. The IL-3 used was obtained from culture supernatants of the cell line X63/0 mIL-3 (cf. Karasuyama, 4. et al. in Eur. J. Immunol. 18, 97-104 (19881). The compounds according to the invention were dissolved in 100% dimethylsulphoxide (DMSO) and added to the cultures in various dilutions, the maximum DMSO concentration being 1%. The cultures were incubated for 48 hours at 37° C.
In order to determine the inhibitory activity of the compounds according to the invention the relative cell number was measured in O.D. units using the Cell Titer 96™ AQueous Non-Radioactive Cell Proliferation Assay (Promega). The relative cell number was calculated as a percentage of the control (F/LHERc cells without inhibitor) and the concentration of active substance which inhibits the proliferation of the cells by 50% (IC50) was derived therefrom.

T1 sequence (P00533 25-1210): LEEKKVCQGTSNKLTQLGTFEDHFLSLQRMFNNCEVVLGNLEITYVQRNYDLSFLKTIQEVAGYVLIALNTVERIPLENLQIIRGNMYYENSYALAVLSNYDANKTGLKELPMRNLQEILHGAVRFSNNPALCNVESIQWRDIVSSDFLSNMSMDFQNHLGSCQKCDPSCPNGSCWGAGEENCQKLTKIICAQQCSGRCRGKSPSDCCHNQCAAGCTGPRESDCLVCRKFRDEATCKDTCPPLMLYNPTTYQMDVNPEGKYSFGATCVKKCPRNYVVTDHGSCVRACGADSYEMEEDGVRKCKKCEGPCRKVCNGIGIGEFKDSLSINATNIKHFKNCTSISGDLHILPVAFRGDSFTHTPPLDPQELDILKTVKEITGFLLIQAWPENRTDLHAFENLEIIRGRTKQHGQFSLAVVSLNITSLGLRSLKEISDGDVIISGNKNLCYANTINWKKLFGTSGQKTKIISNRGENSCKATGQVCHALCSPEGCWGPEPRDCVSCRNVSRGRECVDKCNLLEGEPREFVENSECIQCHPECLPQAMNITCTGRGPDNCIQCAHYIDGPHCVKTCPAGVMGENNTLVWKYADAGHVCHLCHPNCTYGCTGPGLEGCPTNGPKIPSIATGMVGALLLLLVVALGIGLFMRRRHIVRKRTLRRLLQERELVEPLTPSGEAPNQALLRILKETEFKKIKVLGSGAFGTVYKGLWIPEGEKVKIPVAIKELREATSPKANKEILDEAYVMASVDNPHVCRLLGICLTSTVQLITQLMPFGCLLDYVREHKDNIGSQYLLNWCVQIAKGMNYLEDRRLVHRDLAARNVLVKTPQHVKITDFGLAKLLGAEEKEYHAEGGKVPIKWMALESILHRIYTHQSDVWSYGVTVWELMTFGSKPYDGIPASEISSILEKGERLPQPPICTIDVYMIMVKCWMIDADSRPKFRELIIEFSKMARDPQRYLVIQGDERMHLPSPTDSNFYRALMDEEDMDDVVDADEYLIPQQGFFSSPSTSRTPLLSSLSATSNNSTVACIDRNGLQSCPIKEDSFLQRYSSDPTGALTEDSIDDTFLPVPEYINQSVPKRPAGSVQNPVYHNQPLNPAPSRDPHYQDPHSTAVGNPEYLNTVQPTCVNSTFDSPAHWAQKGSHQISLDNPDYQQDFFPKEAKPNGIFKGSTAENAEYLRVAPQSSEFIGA

Row | SMILES | IC50
11 | C=CC(=O)Nc1cc2c(Nc3cccc(Br)c3)ncnc2cc1OCCCN(C)CC(=O)OCC [1(13), 4-[(3-bromophenyl)amino]-7-(3-{N-[(ethoxycarbonyl)methyl]-N-methylamino)propyloxy)-6-[(vinylcarbonyl)amino]-quinazoline] | 8.7 nM
12 | CCOC(=O)CCN(CC=CC(=O)Nc1cc2c(Nc3ccc(F)c(Cl)c3)ncnc2cc1OCC1CC1)CC(=O)OCC [5(22)] | 58 nM
13 | CCOC(=O)CN1CCN(CC=CC(=O)Nc2cc3c(Nc4ccc(F)c(Cl)c4)ncnc3cc2OCC2CC2)CC1 [5(18)] | 7.4 nM
14 | C=CC(=O)Nc1cc2c(Nc3cccc(Br)c3)ncnc2cc1OCCCN1CCN(CP(=O)(OCC)OCC)CC1 [1(10), 4-[(3-bromophenyl)amino]-7-(3-{4-[(diethoxyphosphoryl)-methyl]-piperazin-1-yl}propyloxy)-6-[(vinylcarbonyl)amino]-quinazoline] | 21 nM
15 | C=CC(=O)Nc1cc2c(Nc3cccc(Br)c3)ncnc2cc1OCCCN1CCN(CCCC(=O)OCC)CC1 [1(4), 4-[(3-bromophenyl)amino]-7-(3-{4-[3-(ethoxycarbonyl)propyl]-piperazin-1-yl}propyloxy)-6-[(vinylcarbonyl)amino]-quinazoline] | 15 nM
16 | CCOC(=O)CN(C)CC=CC(=O)Nc1ccc2ncc(C#N)c(Nc3cccc(Br)c3)c2c1 [5(12), 4-[(3-bromophenyl)amino]-3-cyano-6-[(4-{N-[(ethoxycarbonyl)methyl]-N-methylamino}-1-oxo-2-buten-1-yl)amino]-quinoline] | 18 nM
17 | O=C(C=CCN1CCOC(=O)C1)Nc1cc2c(Nc3ccc(F)c(Cl)c3)ncnc2cc1OCC1CC1 [5(25), 4-[(3-chloro-4-fluorophenyl)amino]-6-{[4-(2-oxo-morpholin-4-yl)-1-oxo-2-buten-1-yl]amino}-7-cyclopropylmethoxy-quinazoline] | 74 nM
18 | CCOP(=O)(CN(C)CC=CC(=O)Nc1cc2c(Nc3cccc(Br)c3)ncnc2cc1OC)OCC [2(4), 4-[(3-bromophenyl)amino]-6-[(4-{N-[(diethoxyphosphoryl)methyl]-N-methylamino}-1-oxo-2-buten-1-yl)amino]-7-methoxy-quinazoline] | 6.7 nM
19 | C=CC(=O)Nc1cc2c(Nc3cccc(Br)c3)ncnc2cc1OC1CCN(CC(=O)OCC)CC1 [1(6), 4-[(3-bromophenyl)amino]-7-((1-[(ethoxycarbonyl)methyl]-piperidin-4-yl)oxy)-6-[(vinylcarbonyl)amino]-quinazoline] | 15 nM
20 | CCOC(=O)CN1CCN(CC=CC(=O)Nc2cc3c(Nc4ccc(F)c(Cl)c4)ncnc3cc2OC2CCC2)CC1 [5(29), 4-[(3-chloro-4-fluorophenyl)amino]-6-[(4-{4-[(ethoxycarbonyl)methyl]-piperazin-1-yl)-1-oxo-2-buten-1-yl}amino]-7-cyclobutyloxy-quinazoline] | 1.9 nM
21 | CCOC(=O)CN(C)CC=CC(=O)Nc1cc2c(N[C@H](C)c3ccccc3)ncnc2cc1OC [5(2), (R)-4-[(1-phenylethyl)amino]-6-[(4-(N-[(ethoxycarbonyl)methyl]-N-methylamino}-1-oxo-2-buten-1-yl)amino]-7-methoxy-quinazoline] | 9 nM
22 | COc1cc2ncnc(Nc3cccc(Br)c3)c2cc1NC(=O)C=CCN(C)CC(OC)OC [5(8), 4-[(3-bromophenyl)amino]-6-({4-[N-(2,2-dimethoxyethyl)-N-methylamino]-1-oxo-2-buten-1-yl}amino)-7-methoxy-quinazoline] | 1.8 nM
23 | CCOC1CN(CC=CC(=O)Nc2cc3c(Nc4cccc(Br)c4)ncnc3cc2OC)CCO1 (stereo not shown) [5(10), 4-[(3-bromophenyl)amino]-6-([4-(2-ethoxy-morpholin-4-yl)-1-oxo-2-buten-1-yl]amino)-7-methoxy-quinazoline] | 1.8 nM
24 | COC(=O)[C@@H]1CCCN1CC=CC(=O)Nc1cc2c(Nc3ccc(F)c(Cl)c3)ncnc2cc1OCC1CC1 [5(36)] | 3 nM
25 | CCOC(=O)CN(CC=CC(=O)Nc1cc2c(Nc3ccc(F)c(Cl)c3)ncnc2cc1OCC1CC1)CCSC(C)=O [8(1), 4-[(3-chloro-4-fluorophenyl)amino]-6-[(4-(N-[(ethoxycarbonyl)methyl]-N-[2-(acetylsulphanyl)ethyl]amino)-1-oxo-2-buten-1-yl)amino]-7-cyclopropylmethoxy-quinazoline] | 109 nM
